# According to the supplement of paper PMC11061612:
# How the values were obtained:
# Selumetinib = compound: Cn1cnc2c(F)c(Nc3ccc(Br)cc3Cl)c(C(=O)NOCCO)cc21 [Selumetinib]; settings: max 10 µM
# How it was run: (§1)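 Viability was measured with CellTiter-Glo 2.0 luminescence after 72 hours of dosing at a final DMSO of typically 0.2%, and scaled between blank-well and DMSO-well means. Beforehand, cancer cell lines sat 24 hours at 37°C and 5% CO2 in 1536-well plates in 7.5 μl DMEM/F12 or RPMI with 10% FBS. A non-linear mixed effects model fitted two-parameter logistic curves to the dose responses. The single-agent IC50 comes from these fits.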
# Savolitinib = compound: C[C@@H](c1ccc2nccn2c1)n1nnc2ncc(-c3cnn(C)c3)nc21 [Savolitinib]; settings: max 1 µM
# How it was run: as §1
# Crizotinib = compound: C[C@@H](Oc1cc(-c2cnn(C3CCNCC3)c2)cnc1N)c1c(Cl)ccc(F)c1Cl [Crizotinib]; settings: max 10 µM
# How it was run: as §1
# Taselisib = compound: Cc1nc(-c2cn3c(n2)-c2ccc(-c4cnn(C(C)(C)C(N)=O)c4)cc2OCC3)n(C(C)C)n1 [Taselisib]; settings: max 10 µM
# How it was run: as §1
# Dasatinib = compound: CC1=C(C(=CC=C1)Cl)NC(=O)C2=CN=C(S2)NC3=CC(=NC(=N3)C)N4CCN(CC4)CCO [Dasatinib]; settings: max 2 µM
# How it was run: as §1
# SG3199 = compound: CC1=CN2[C@@H](C1)C=NC3=CC(=C(C=C3C2=O)OC)OCCCCCOC4=C(C=C5C(=C4)N=C[C@@H]6CC(=CN6C5=O)C)OC [SG3199]; settings: max 0.001 µM
# How it was run: as §1
# SRA737 = compound: N#Cc1cnc(Nc2cc(NC[C@H]3CNCCO3)c(C(F)(F)F)cn2)cn1 [SRA737]; settings: max 10 µM
# How it was run: as §1
# Olaparib = compound: O=C(c1cc(Cc2n[nH]c(=O)c3ccccc23)ccc1F)N1CCN(C(=O)C2CC2)CC1 [Olaparib]; settings: max 10 µM
# How it was run: as §1
# 5-Fluorouracil = compound: O=c1[nH]cc(F)c(=O)[nH]1 [5-Fluorouracil]; settings: max 20 µM
# How it was run: as §1
# Prexasertib = compound: COc1cccc(OCCCN)c1-c1cc(Nc2cnc(C#N)cn2)n[nH]1 [Prexasertib]; settings: max 1 µM
# How it was run: as §1
# AZD5363 = compound: C1CN(CCC1(C(=O)N[C@@H](CCO)C2=CC=C(C=C2)Cl)N)C3=NC=NC4=C3C=CN4 [AZD5363]; settings: max 10 µM
# How it was run: as §1
# AZD2811 = compound: CCN(CCO)CCCOc1ccc2c(Nc3cc(CC(=O)Nc4cccc(F)c4)[nH]n3)ncnc2c1 [AZD2811]; settings: max 1 µM
# How it was run: as §1
# Etoposide = compound: COc1cc([C@@H]2c3cc4c(cc3[C@@H](O[C@@H]3O[C@@H]5CO[C@@H](C)O[C@H]5[C@H](O)[C@H]3O)[C@H]3COC(=O)[C@H]23)OCO4)cc(OC)c1O [Etoposide]; settings: max 10 µM
# How it was run: as §1
# Palbociclib = compound: CC(=O)c1c(C)c2cnc(Nc3ccc(N4CCNCC4)cn3)nc2n(C2CCCC2)c1=O [Palbociclib]; settings: max 10 µM
# How it was run: as §1
# Trametinib = compound: CC(=O)Nc1cccc(-n2c(=O)n(C3CC3)c(=O)c3c(Nc4ccc(I)cc4F)n(C)c(=O)c(C)c32)c1 [Trametinib]; settings: max 1 µM
# How it was run: as §1
# Doxorubicin = compound: COc1cccc2c1C(=O)c1c(O)c3c(c(O)c1C2=O)C[C@@](O)(C(=O)CO)C[C@@H]3O[C@H]1C[C@H](N)[C@H](O)[C@H](C)O1 [Doxorubicin]; settings: max 1 µM
# How it was run: as §1
# MK-2206 = compound: NC1(c2ccc(-c3nc4ccn5c(=O)[nH]nc5c4cc3-c3ccccc3)cc2)CCC1 [MK-2206]; settings: max 10 µM
# How it was run: as §1
# AZD6738 = compound: C[C@@H]1COCCN1C2=NC(=NC(=C2)C3(CC3)[S@](=N)(=O)C)C4=C5C=CNC5=NC=C4 [AZD6738]; settings: max 10 µM
# How it was run: as §1
# Gefitinib = compound: COc1cc2ncnc(Nc3ccc(F)c(Cl)c3)c2cc1OCCCN1CCOCC1 [Gefitinib]; settings: max 10 µM
# How it was run: as §1
# Alisertib = compound: COc1cc(Nc2ncc3c(n2)-c2ccc(Cl)cc2C(c2c(F)cccc2OC)=NC3)ccc1C(=O)O [Alisertib]; settings: max 10 µM
# How it was run: as §1
# AZD8186 = compound: C[C@@H](Nc1cc(F)cc(F)c1)c1cc(C(=O)N(C)C)cc2c(=O)cc(N3CCOCC3)oc12 [AZD8186]; settings: max 10 µM
# How it was run: as §1
# Lapatinib = compound: CS(=O)(=O)CCNCc1ccc(-c2ccc3ncnc(Nc4ccc(OCc5cccc(F)c5)c(Cl)c4)c3c2)o1 [Lapatinib]; settings: max 10 µM
# How it was run: as §1
# AZD5153 = compound: COc1nnc2ccc(N3CCC(c4ccc(OCCN5CCN(C)C(=O)[C@H]5C)cc4)CC3)nn12 [AZD5153]; settings: max 1 µM
# How it was run: as §1
# AZD1775 = compound: C=CCn1c(=O)c2cnc(Nc3ccc(N4CCN(C)CC4)cc3)nc2n1-c1cccc(C(C)(C)O)n1 [AZD1775]; settings: max 3 µM
# How it was run: as §1
# Carboplatin = compound: C1CC(C1)(C(=O)[O-])C(=O)[O-].N.N.[Pt+2] [Carboplatin]; settings: max 10 µM
# How it was run: as §1
# AZD0156 = compound: CN(C)CCCOc1ccc(-c2ccc3ncc4c(c3c2)n(C2CCOCC2)c(=O)n4C)cn1 [AZD0156]; settings: max 3 µM
# How it was run: as §1
# AZD7648 = compound: Cc1cc2ncnn2cc1Nc1ncc2c(n1)n(C1CCOCC1)c(=O)n2C [AZD7648]; settings: max 10 µM
# How it was run: as §1
# AZD5991 = compound: Cc1c2c(nn1C)CSCc1cc(n(C)n1)CSc1cc(c3ccccc3c1)OCCCc1c(C(=O)O)n(C)c3c-2c(Cl)ccc13 [AZD5991]; settings: max 1 µM
# How it was run: as §1
# AZD4320 = compound: CN(CC[C@H](CSC1=CC=CC=C1)NC2=C(C=C(C=C2)S(=O)(=O)NC(=O)C3=CC=C(C=C3)N4CCC(CC4)[C@H](C5=CC=CC=C5C6=CC=C(C=C6)Cl)O)S(=O)(=O)C(F)(F)F)CCO [AZD4320]; settings: max 1 µM
# How it was run: as §1
# Gemcitabine = compound: Nc1ccn([C@@H]2O[C@H](CO)[C@@H](O)C2(F)F)c(=O)n1 [Gemcitabine]; settings: max 0.3 µM
# How it was run: as §1
# [1] = compound: O=C(Nc1ccc2[nH]nc(-c3ccncc3)c2c1)[C@@H]1CCN(CC(=O)N2CCN(c3ccc(-c4ncccn4)cc3)CC2)C1; settings: max 5 µM
# How it was run: as §1
# Paclitaxel = compound: CC(=O)O[C@H]1C(=O)[C@@]2(C)[C@H]([C@H](OC(=O)c3ccccc3)[C@]3(O)C[C@H](OC(=O)[C@H](O)[C@@H](NC(=O)c4ccccc4)c4ccccc4)C(C)=C1C3(C)C)[C@]1(OC(C)=O)CO[C@@H]1C[C@@H]2O [Paclitaxel]; settings: max 3 µM
# How it was run: as §1
# Venetoclax = compound: CC1(C)CCC(CN2CCN(c3ccc(C(=O)NS(=O)(=O)c4ccc(NCC5CCOCC5)c([N+](=O)[O-])c4)c(Oc4cnc5[nH]ccc5c4)c3)CC2)=C(c2ccc(Cl)cc2)C1 [Venetoclax]; settings: max 1 µM
# How it was run: as §1
# SN-38 = compound: CCc1c2c(nc3ccc(O)cc13)-c1cc3c(c(=O)n1C2)COC(=O)[C@]3(O)CC [SN-38]; settings: max 0.3 µM
# How it was run: as §1
# AZD1390 = compound: CC(C)n1c(=O)n(C)c2cnc3cc(F)c(-c4ccc(OCCCN5CCCCC5)nc4)cc3c21 [AZD1390]; settings: max 0.3 µM
# How it was run: as §1
Cell Line,"IC50, cell viability 72 h (Selumetinib) [nM]","IC50, cell viability 72 h (Savolitinib) [nM]","IC50, cell viability 72 h (Crizotinib) [nM]","IC50, cell viability 72 h (Taselisib) [nM]","IC50, cell viability 72 h (Dasatinib) [nM]","IC50, cell viability 72 h (SG3199) [nM]","IC50, cell viability 72 h (SRA737) [nM]","IC50, cell viability 72 h (Olaparib) [nM]","IC50, cell viability 72 h (5-Fluorouracil) [nM]","IC50, cell viability 72 h (Prexasertib) [nM]","IC50, cell viability 72 h (AZD5363) [nM]","IC50, cell viability 72 h (AZD2811) [nM]","IC50, cell viability 72 h (Etoposide) [nM]","IC50, cell viability 72 h (Palbociclib) [nM]","IC50, cell viability 72 h (Trametinib) [nM]","IC50, cell viability 72 h (Doxorubicin) [nM]","IC50, cell viability 72 h (MK-2206) [nM]","IC50, cell viability 72 h (AZD6738) [nM]","IC50, cell viability 72 h (Gefitinib) [nM]","IC50, cell viability 72 h (Alisertib) [nM]","IC50, cell viability 72 h (AZD8186) [nM]","IC50, cell viability 72 h (Lapatinib) [nM]","IC50, cell viability 72 h (AZD5153) [nM]","IC50, cell viability 72 h (AZD1775) [nM]","IC50, cell viability 72 h (Carboplatin) [nM]","IC50, cell viability 72 h (AZD0156) [nM]","IC50, cell viability 72 h (AZD7648) [nM]","IC50, cell viability 72 h (AZD5991) [nM]","IC50, cell viability 72 h (AZD4320) [nM]","IC50, cell viability 72 h (Gemcitabine) [nM]","IC50, cell viability 72 h [1] [nM]","IC50, cell viability 72 h (Paclitaxel) [nM]","IC50, cell viability 72 h (Venetoclax) [nM]","IC50, cell viability 72 h (SN-38) [nM]","IC50, cell viability 72 h (AZD1390) [nM]"
Mo-T (Other Blood Carcinomas),> 10000,> 1000,> 10000,> 10000,> 2000,> 1,> 10000,> 10000,> 20000,> 1000,> 10000,> 1000,1090,> 10000,> 1000,217,> 10000,> 10000,> 10000,> 10000,> 10000,> 10000,343,790,> 10000,> 3000,> 10000,> 1000,671,52.6,> 5000,106,> 1000,44,> 300
NCI-H522 (Lung Adenocarcinoma),> 10000,> 1000,> 10000,> 10000,> 2000,> 1,> 10000,> 10000,> 20000,> 1000,> 10000,> 1000,> 10000,> 10000,> 1000,> 1000,> 10000,> 10000,> 10000,> 10000,> 10000,> 10000,> 1000,> 3000,> 10000,> 3000,> 10000,> 1000,> 1000,> 300,> 5000,59.5,> 1000,> 300,> 300
NCI-H1355 (Lung Adenocarcinoma),> 10000,> 1000,> 10000,5790,> 2000,> 1,> 10000,> 10000,> 20000,86.5,> 10000,> 1000,> 10000,> 10000,> 1000,> 1000,> 10000,8560,> 10000,> 10000,> 10000,> 10000,> 1000,> 3000,> 10000,> 3000,> 10000,> 1000,> 1000,> 300,> 5000,42.9,> 1000,> 300,> 300
NCI-H1993 (Lung Adenocarcinoma),9990,22,309,4520,> 2000,> 1,> 10000,> 10000,9360,62.5,5220,> 1000,6590,> 10000,89.4,249,4430,> 10000,> 10000,> 10000,> 10000,> 10000,> 1000,1340,> 10000,> 3000,> 10000,> 1000,383,15.5,3250,11.2,> 1000,262,> 300
OE33 (Esophageal Adenocarcinoma),> 10000,> 1000,> 10000,> 10000,> 2000,> 1,7720,> 10000,> 20000,43.5,> 10000,> 1000,> 10000,> 10000,> 1000,> 1000,> 10000,2590,> 10000,> 10000,> 10000,> 10000,> 1000,1590,> 10000,> 3000,> 10000,> 1000,> 1000,170,> 5000,736,> 1000,199,> 300
